Activity calls are given as the source filed them. The calls are words filed in the database; no cut-off is given here.
How the values were obtained:
[1] = Plasma protein binding in human at 2 uM incubated for 4 hrs by rapid equilibrium dialysis
[2] = target: T1, CYP2C8 (Homo sapiens, UniProt P10632); assay: Inhibition of CYP2C8 in human liver microsomes at 10 uM in presence of NADPH relative to control
T1 sequence (P10632 whole entry): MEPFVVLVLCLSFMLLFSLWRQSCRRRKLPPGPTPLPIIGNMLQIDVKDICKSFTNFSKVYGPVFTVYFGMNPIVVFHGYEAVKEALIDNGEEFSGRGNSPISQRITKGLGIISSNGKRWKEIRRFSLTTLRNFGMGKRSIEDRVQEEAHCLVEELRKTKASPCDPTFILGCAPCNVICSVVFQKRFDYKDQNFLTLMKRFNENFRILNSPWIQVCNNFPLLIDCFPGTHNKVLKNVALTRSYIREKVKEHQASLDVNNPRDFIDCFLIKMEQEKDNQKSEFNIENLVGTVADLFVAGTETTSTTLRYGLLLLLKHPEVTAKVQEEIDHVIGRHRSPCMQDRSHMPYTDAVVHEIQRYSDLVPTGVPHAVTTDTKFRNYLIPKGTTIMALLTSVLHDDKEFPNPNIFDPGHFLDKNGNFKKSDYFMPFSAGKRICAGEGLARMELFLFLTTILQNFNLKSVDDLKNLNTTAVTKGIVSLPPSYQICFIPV

[3] = Apparent permeability of the compound from apical to basolateral side in human Caco-2 cells incubated for 1 hr
[4] = target: CYP2C9 (Homo sapiens, UniProt P11712); assay: Inhibition of CYP2C9 in human liver microsomes at 10 uM in presence of NADPH relative to control
[5] = in vitro; details: human, cryopreserved hepatocytes
[6] = in vitro; details: mouse, cryopreserved hepatocytes
[7] = Plasma protein binding in Sprague-Dawley rat at 2 uM incubated for 4 hrs by rapid equilibrium dialysis
[8] = in vitro; details: rat, cryopreserved hepatocytes
[9] = target: Sodium channel protein type 5 subunit alpha (Homo sapiens, UniProt Q14524); assay: Inhibition of Nav1.5 (unknown origin)
[10] = target: Voltage-dependent L-type calcium channel subunit alpha-1C (Homo sapiens, UniProt Q13936); assay: Inhibition of CaV1.2 (unknown origin)
[11] = target: T2, UDP-glucuronosyltransferase 1A1 (Homo sapiens, UniProt P22309); assay: Inhibition of human recombinant UGT1A1 in presence of UDPGA cofactor
T2 sequence (P22309 whole entry): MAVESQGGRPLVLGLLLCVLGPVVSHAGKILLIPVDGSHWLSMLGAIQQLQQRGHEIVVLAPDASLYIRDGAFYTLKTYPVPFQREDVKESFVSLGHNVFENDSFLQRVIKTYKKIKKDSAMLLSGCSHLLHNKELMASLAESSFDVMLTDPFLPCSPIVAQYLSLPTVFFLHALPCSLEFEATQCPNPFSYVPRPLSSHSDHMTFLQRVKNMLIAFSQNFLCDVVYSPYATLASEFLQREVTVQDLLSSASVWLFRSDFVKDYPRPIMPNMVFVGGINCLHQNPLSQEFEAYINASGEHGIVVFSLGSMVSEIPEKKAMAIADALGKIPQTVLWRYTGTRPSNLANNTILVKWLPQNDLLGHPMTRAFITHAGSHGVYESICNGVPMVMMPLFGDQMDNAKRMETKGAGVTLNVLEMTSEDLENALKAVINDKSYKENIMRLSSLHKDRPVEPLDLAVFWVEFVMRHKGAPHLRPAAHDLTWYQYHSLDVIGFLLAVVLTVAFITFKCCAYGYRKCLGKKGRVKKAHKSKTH

[12] = target: T3, Solute carrier organic anion transporter family member 1B1 (Homo sapiens, UniProt Q9Y6L6); assay: Inhibition of OATP1B1 (unknown origin) stably transfected in HEK293 cells at 1 to 100 uM; type: cell-based
T3 sequence (Q9Y6L6 whole entry): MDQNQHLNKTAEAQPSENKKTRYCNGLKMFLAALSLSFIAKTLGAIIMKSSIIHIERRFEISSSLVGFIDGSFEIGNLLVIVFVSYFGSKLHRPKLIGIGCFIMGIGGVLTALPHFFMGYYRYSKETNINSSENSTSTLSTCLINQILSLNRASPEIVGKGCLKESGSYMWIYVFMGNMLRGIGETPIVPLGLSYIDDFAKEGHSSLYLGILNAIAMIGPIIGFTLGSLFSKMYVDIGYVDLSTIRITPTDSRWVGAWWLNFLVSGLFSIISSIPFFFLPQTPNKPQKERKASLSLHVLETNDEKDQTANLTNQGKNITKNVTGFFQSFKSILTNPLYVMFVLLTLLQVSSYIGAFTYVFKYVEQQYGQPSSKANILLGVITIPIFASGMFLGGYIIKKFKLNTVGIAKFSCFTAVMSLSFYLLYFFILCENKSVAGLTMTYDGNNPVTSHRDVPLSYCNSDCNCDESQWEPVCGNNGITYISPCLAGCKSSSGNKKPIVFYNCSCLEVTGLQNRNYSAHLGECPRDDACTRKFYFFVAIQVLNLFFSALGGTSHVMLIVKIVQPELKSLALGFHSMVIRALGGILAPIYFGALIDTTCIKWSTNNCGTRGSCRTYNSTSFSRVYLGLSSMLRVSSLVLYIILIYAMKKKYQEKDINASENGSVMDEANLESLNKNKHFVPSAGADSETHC

[13] = Effect on CPT1A gene expression in human Huh-7 cells measured for 24 hrs; details: Huh-7, 24 h
[14] = organism: Rattus norvegicus; assay: Antihypercholesterolemic activity against high fat diet-induced Sprague-Dawley rat model assessed as minimum effective dose measured after 24 hrs post dose; type: functional; details: read-out: MED
[15] = Drug concentration in Sprague-Dawley rat plasma at 1.5 mg/kg, po measured for 24 hrs by LC-MS/MS analysis; type: ADME, organism-based
[16] = AUC (0 to 24 hrs) in Sprague-Dawley rat at 1.5 mg/kg, po measured for 24 hrs by LC-MS/MS analysis; type: ADME, organism-based; details: in vivo
[17] = Drug concentration in Sprague-Dawley rat liver at 1.5 mg/kg, po measured for 24 hrs by LC-MS/MS analysis; type: ADME, organism-based; details: read-out: Ct
[18] = Drug concentration in Sprague-Dawley rat plasma at 5 mg/kg, po measured for 24 hrs by LC-MS/MS analysis; type: ADME, organism-based
[19] = tested on: Rattus norvegicus; assay: Antihypercholesterolemic activity against high fat diet-induced Sprague-Dawley rat model assessed as change in T4 level at 5 mg/kg, po measured at 1 to 24 hrs post dose; type: functional; details: time 1-24 hrs
[20] = tested on: Rattus norvegicus; assay: Antihypercholesterolemic activity against high fat diet-induced Sprague-Dawley rat model assessed as change in T4 level at 0.15 mg/kg, po measured at 1 to 24 hrs post dose; type: functional; details: time 1-24 hrs
[21] = tested on: Rattus norvegicus; assay: Antihypercholesterolemic activity against high fat diet-induced Sprague-Dawley rat model assessed as change in LDL-C level at 1.5 mg/kg, po measured at 1 to 24 hrs post dose; type: functional; details: time 1-24 hrs
[22] = in vitro; details: dog, cryopreserved hepatocytes
[23] = tested on: Rattus norvegicus; assay: Antihypercholesterolemic activity against high fat diet-induced Sprague-Dawley rat model assessed as change in total cholesterol level at 0.15 mg/kg, po measured at 1 to 24 hrs post dose; type: functional; details: time 1-24 hrs
[24] = Plasma protein binding in cynomolgus monkey at 2 uM incubated for 4 hrs by rapid equilibrium dialysis
[25] = tested on: Rattus norvegicus; assay: Antihypercholesterolemic activity against high fat diet-induced Sprague-Dawley rat model assessed as change in T3 level at 1.5 mg/kg, po measured at 1 to 24 hrs post dose; type: functional; details: time 1-24 hrs
[26] = Cmax in Sprague-Dawley rat at 5 mg/kg, po measured for 24 hrs by LC-MS/MS analysis; type: ADME, organism-based; details: in vivo
[27] = tested on: Rattus norvegicus; assay: Antihypercholesterolemic activity against high fat diet-induced Sprague-Dawley rat model assessed as change in T3 level at 0.15 mg/kg, po measured at 1 to 24 hrs post dose; type: functional; details: time 1-24 hrs
[28] = tested on: Rattus norvegicus; assay: Antihypercholesterolemic activity against high fat diet-induced Sprague-Dawley rat model assessed as change in LDL-C level at 0.15 mg/kg, po measured at 1 to 24 hrs post dose; type: functional; details: time 1-24 hrs
[29] = in vitro; details: cynomolgus monkey, cryopreserved hepatocytes
[30] = tested on: Rattus norvegicus; assay: Antihypercholesterolemic activity against high fat diet-induced Sprague-Dawley rat model assessed as change in total cholesterol level at 5 mg/kg, po measured at 1 to 24 hrs post dose; type: functional; details: time 1-24 hrs
[31] = tested on: Rattus norvegicus; assay: Antihypercholesterolemic activity against high fat diet-induced Sprague-Dawley rat model assessed as change in LDL-C level at 5 mg/kg, po measured at 1 to 24 hrs post dose; type: functional; details: time 1-24 hrs
[32] = Ratio AUC in mouse liver to plasma; details: other tissue
[33] = Drug concentration in Sprague-Dawley rat liver at 5 mg/kg, po measured for 24 hrs by LC-MS/MS analysis; type: ADME, organism-based; details: read-out: Ct
[34] = tested on: Rattus norvegicus; assay: Antihypercholesterolemic activity against high fat diet-induced Sprague-Dawley rat model assessed as change in T4 level at 1.5 mg/kg, po measured at 1 to 24 hrs post dose; type: functional; details: time 1-24 hrs
[35] = tested on: Rattus norvegicus; assay: Antihypercholesterolemic activity against high fat diet-induced po dosed Sprague-Dawley rat model assessed as reduction in TC level measured after 24 hrs post dose; type: functional, organism-based; details: dose 0.15-5 mg/kg
[36] = Ratio AUC in rat liver to plasma; details: other tissue
[37] = tested on: Rattus norvegicus; assay: Antihypercholesterolemic activity against high fat diet-induced Sprague-Dawley rat model assessed as change in T3 level at 5 mg/kg, po measured at 1 to 24 hrs post dose; type: functional; details: time 1-24 hrs
[38] = tested on: Rattus norvegicus; assay: Antihypercholesterolemic activity against high fat diet-induced Sprague-Dawley rat model assessed as change in total cholesterol level at 1.5 mg/kg, po measured at 1 to 24 hrs post dose; type: functional; details: time 1-24 hrs
[39] = Cmax in Sprague-Dawley rat at 1.5 mg/kg, po measured for 24 hrs by LC-MS/MS analysis; type: ADME, organism-based; details: in vivo
[40] = Plasma protein binding in Beagle dog at 2 uM incubated for 4 hrs by rapid equilibrium dialysis

Chain of CYP2C9 (P11712 whole entry): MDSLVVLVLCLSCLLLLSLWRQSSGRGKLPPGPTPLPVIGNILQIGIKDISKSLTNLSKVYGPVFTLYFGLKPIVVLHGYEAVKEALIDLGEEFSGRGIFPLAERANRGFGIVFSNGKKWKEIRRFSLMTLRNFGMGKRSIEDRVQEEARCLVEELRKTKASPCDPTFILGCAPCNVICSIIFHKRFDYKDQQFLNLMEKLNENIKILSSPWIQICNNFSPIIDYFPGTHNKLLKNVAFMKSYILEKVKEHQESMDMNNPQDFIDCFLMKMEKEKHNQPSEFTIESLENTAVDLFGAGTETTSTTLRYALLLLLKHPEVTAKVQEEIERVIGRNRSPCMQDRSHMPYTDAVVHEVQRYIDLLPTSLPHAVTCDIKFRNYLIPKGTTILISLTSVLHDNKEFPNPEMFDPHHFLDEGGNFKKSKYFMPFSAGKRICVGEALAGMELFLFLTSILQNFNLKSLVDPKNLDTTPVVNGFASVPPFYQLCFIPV
Chain of Voltage-dependent L-type calcium channel subunit alpha-1C (Q13936 whole entry): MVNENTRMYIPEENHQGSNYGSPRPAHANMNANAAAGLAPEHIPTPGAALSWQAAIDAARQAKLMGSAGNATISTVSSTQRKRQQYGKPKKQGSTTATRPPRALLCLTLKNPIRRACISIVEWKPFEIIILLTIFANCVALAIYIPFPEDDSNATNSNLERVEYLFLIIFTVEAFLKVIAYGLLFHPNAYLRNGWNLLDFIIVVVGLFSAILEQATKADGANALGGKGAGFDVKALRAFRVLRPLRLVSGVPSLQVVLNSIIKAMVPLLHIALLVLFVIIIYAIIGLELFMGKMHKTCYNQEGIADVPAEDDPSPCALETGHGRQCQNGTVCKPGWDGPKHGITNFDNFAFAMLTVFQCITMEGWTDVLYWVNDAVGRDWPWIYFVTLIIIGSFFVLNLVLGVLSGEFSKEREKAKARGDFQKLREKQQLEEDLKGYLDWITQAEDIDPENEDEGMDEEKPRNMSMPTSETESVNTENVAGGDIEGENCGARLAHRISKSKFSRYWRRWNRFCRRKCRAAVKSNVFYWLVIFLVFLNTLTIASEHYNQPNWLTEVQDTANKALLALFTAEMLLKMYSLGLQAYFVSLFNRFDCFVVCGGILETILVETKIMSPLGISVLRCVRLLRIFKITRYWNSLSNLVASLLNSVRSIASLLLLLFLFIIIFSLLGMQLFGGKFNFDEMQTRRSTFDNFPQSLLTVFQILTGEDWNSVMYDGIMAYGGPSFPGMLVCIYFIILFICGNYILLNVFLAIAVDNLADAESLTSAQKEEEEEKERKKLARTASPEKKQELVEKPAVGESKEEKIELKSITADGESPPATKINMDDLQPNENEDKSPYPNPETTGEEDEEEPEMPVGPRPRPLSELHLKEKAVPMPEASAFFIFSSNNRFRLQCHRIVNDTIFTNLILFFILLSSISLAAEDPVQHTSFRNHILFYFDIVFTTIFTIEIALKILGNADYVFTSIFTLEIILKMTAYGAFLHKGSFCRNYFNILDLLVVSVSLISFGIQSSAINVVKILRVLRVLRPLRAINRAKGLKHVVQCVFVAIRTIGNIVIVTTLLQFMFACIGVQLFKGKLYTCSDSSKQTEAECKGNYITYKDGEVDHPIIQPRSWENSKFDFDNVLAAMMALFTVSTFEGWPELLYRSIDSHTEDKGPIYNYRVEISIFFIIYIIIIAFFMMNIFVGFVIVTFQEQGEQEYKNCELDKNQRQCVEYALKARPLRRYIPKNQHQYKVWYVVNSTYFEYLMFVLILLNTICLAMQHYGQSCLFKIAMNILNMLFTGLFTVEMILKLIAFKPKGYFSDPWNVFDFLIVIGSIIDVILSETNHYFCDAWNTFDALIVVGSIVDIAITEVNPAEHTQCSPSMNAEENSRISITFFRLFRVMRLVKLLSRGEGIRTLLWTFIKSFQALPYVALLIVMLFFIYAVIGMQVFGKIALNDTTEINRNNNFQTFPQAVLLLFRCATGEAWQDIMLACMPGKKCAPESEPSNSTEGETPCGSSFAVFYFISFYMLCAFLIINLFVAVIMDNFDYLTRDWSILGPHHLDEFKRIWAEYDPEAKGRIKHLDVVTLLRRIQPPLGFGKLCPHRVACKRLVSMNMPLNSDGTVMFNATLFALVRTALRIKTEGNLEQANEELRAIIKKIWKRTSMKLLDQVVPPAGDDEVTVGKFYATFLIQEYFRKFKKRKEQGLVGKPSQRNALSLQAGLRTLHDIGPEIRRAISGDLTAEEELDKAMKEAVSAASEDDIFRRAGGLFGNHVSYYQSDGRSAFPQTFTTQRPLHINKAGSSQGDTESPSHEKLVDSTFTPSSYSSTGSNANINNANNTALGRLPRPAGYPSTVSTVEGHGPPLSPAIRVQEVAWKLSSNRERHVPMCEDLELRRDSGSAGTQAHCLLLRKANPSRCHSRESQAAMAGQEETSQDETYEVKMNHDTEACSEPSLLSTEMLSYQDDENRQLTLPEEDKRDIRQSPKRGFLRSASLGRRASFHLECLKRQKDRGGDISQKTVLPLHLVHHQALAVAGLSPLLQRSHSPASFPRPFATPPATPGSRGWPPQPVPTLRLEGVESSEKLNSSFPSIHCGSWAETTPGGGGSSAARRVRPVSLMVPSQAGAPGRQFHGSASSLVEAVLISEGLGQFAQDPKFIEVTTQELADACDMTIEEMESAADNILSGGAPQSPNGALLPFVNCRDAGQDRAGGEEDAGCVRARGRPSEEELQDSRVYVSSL
Chain of Sodium channel protein type 5 subunit alpha (Q14524 whole entry): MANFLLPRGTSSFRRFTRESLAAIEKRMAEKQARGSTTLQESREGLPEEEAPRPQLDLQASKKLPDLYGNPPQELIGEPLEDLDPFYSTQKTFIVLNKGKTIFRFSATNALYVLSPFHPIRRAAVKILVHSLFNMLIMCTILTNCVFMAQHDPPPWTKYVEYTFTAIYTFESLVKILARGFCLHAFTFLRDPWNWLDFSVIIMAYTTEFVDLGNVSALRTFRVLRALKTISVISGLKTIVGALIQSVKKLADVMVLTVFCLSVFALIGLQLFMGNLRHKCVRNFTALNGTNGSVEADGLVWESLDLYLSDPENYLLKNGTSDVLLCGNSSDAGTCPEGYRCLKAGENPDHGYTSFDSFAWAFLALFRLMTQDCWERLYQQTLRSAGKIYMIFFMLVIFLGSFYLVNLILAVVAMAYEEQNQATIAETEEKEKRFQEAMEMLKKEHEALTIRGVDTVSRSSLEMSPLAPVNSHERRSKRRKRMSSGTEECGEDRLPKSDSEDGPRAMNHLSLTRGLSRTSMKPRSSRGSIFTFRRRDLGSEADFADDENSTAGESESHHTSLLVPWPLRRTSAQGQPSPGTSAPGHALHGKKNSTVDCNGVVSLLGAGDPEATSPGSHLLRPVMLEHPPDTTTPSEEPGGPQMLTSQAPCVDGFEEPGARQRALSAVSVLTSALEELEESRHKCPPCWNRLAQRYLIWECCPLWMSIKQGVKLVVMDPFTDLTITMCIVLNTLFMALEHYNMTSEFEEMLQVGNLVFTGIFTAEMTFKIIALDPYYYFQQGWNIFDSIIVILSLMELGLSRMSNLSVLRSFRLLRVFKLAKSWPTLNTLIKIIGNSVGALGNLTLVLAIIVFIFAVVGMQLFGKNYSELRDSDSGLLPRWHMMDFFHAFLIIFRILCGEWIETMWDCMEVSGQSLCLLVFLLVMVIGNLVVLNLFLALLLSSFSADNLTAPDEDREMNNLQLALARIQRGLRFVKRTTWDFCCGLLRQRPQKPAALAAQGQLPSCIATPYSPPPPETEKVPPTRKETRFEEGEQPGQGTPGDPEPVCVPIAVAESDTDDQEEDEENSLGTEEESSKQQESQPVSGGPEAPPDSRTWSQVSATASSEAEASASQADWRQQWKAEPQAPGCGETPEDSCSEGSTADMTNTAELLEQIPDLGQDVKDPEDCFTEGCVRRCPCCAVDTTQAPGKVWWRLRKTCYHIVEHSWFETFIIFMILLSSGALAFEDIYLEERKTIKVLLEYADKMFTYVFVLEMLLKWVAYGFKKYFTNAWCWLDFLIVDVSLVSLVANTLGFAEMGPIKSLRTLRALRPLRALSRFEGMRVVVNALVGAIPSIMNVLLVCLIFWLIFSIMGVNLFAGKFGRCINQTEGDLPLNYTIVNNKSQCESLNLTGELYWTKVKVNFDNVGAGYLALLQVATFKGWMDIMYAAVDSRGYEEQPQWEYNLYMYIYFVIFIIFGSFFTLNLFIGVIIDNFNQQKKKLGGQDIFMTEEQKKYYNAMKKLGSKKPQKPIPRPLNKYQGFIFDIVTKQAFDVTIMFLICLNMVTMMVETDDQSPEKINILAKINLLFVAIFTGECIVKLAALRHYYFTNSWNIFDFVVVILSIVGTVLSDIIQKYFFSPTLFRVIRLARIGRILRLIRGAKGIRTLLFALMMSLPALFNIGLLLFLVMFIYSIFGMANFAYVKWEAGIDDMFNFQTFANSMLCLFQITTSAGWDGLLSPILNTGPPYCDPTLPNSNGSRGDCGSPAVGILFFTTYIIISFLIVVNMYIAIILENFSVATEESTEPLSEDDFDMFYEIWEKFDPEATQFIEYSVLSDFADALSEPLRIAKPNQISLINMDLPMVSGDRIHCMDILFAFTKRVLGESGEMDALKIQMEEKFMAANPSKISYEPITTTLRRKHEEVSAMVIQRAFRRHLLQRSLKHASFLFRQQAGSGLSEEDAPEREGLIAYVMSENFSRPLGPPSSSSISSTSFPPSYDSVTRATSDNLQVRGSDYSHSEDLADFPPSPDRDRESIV

SMILES: C#Cc1nn(-c2cc(Cl)c(Oc3cc(C(C)C)c(=O)[nH]n3)c(Cl)c2)c(=O)[nH]c1=O
- fraction unbound at 4 h, 2 µM [1]: 0.01
- inhibition at 10 µM [2]: 87%
- Papp A→B at 1 h ([3]; Caco-2): 0.3 ×10⁻⁶ cm/s
- inhibition at 10 µM [4]: 61%
- half-life at 3 h, 1 µM [5]: 1.72 h
- half-life at 3 h, 1 µM [6]: 1.18 h
- fraction unbound at 4 h, 2 µM [7]: < 0.002
- half-life at 3 h, 1 µM [8]: 1.43 h

SMILES: CC(C)c1cc(Oc2c(Cl)cc(-n3nc(N)c(=O)[nH]c3=O)cc2Cl)n[nH]c1=O
- IC50 [9]: > 10 µM
- IC50 [10]: > 10 µM
- IC50 [11]: 37.5 µM
- IC50 [12]: 23.8 µM

SMILES: CC(C)c1cc(Oc2c(Cl)cc(-n3nc(C#N)c(=O)[nH]c3=O)cc2Cl)n[nH]c1=O [RESMETIROM]
- fraction unbound at 4 h, 2 µM [1]: 0.003
- EC50 [13]: 0.303 µM
- minimal effective dose [14]: 0.15 mg/kg
- concentration at 24 h [15]: 38.2 ng/mL
- AUC(0-t) at 24 h [16]: 9410 ng·h/mL
- concentration at 24 h [17]: 73.6 ng/g
- inhibition at 10 µM [2]: 91%
- concentration at 24 h [18]: 217 ng/mL
- Papp ([3]; caco-2, 1 h): 0.03 10^-6 cm/s
- inhibition at 10 µM [4]: 49%
- Activity [19]: -15.7%
- Activity [20]: -18.4%
- Activity [21]: -34.8%
- half-life at 3 h, 1 µM [5]: 3.22 h
- half-life at 3 h, 1 µM [6]: > 6 h
- half-life at 3 h, 1 µM [22]: > 6 h
- Activity [23]: 9.5%
- fraction unbound at 4 h, 2 µM [24]: 0.005
- Activity [25]: 1.7%
- Cmax [26]: 2550 ng/mL
- Activity [27]: -4.6%
- Activity [28]: -0.8%
- half-life at 3 h, 1 µM [29]: 1.85 h
- Activity [30]: -34.5%
- Activity [31]: -44.2%
- Kp [32]: 6.3
- fraction unbound at 4 h, 2 µM [7]: 0.004
- concentration at 24 h [33]: 613 ng/g
- Activity [34]: -15.6%
- Activity [35]: Active
- Kp [36]: 6.8
- Activity [37]: -1.9%
- Activity [38]: -25.8%
- Cmax [39]: 969 ng/mL
- half-life at 3 h, 1 µM [8]: > 6 h
- fraction unbound at 4 h, 2 µM [40]: 0.012

Reference: ChEMBL document CHEMBL5584359, “Discovery and Preclinical Profile of ALG-055009, a Potent and Selective Thyroid Hormone Receptor Beta (THR-β) Agonist for the Treatment of MASH” (J Med Chem, 2024)
